Assay results: patent EP2987533B1, “7-substituted piperazin-1-yl fluoroquinolone compounds, their use in the treatment of cancer, pharmaceutical compositions and a method for preparation” (priority 2014, dated 2016)

Assays:
K-562 = experiment: NCI one-dose SRB growth assay; assay type: cell-based; details: Homo sapiens, K562; K-562 (Leukemia), 10^-5 M, 48 h; read-out: % Growth Inhibition (GI %)
Experimental: (§1) A primary anticancer assay was performed for an approximately 60 human tumor cell line panel derived from nine neoplastic diseases, in accordance with the protocol of the Drug Evaluation Branch, National Cancer Institute, Bethesda, MD (Monks A. et al., J. Natl. Cancer Inst 1991, 83, 757-766; Boyd M.R. and Paull K.D., Drug. Dev. Res. 1995, 34, 91-109; Shoemaker R.H., Nat. Rev. Cancer 2006, 6, 813-823). Briefly, tested compounds were added to the culture at a single concentration (10^-5M), and the cultures were incubated for 48 h. End point determinations were made with a protein binding dye, sulforhodamine B (SRB). The results for each tested compound were reported as the growth percentage of the treated cells when compared to that of the untreated control cells. The percentage growth was evaluated spectrophotometrically versus controls not treated with test agents.

NCI-H522 = experiment: NCI one-dose SRB growth assay; assay type: cell-based; details: Homo sapiens; NCI-H522 (Non-Small Cell Lung Cancer), 10^-5 M, 48 h; read-out: % Growth Inhibition (GI %)
Experimental: as §1

M14 = experiment: NCI one-dose SRB growth assay; assay type: cell-based; details: Homo sapiens; M14 (Melanoma), 10^-5 M, 48 h; read-out: % Growth Inhibition (GI %)
Experimental: as §1

SF-539 = experiment: NCI one-dose SRB growth assay; assay type: cell-based; details: Homo sapiens; SF-539 (CNS Cancer), 10^-5 M, 48 h; read-out: % Growth Inhibition (GI %)
Experimental: as §1

A498 = experiment: NCI one-dose SRB growth assay; assay type: cell-based; details: Homo sapiens; A498 (Renal Cancer), 10^-5 M, 48 h; read-out: % Growth Inhibition (GI %)
Experimental: as §1

MCF7 = experiment: NCI one-dose SRB growth assay; assay type: cell-based; details: Homo sapiens; MCF7 (Breast Cancer), 10^-5 M, 48 h; read-out: % Growth Inhibition (GI %)
Experimental: as §1

OVCAR-4 = experiment: NCI one-dose SRB growth assay; assay type: cell-based; details: Homo sapiens; OVCAR-4 (Ovarian Cancer), 10^-5 M, 48 h; read-out: % Growth Inhibition (GI %)
Experimental: as §1

CAKI-1 = experiment: NCI one-dose SRB growth assay; assay type: cell-based; details: Homo sapiens; CAKI-1 (Renal Cancer), 10^-5 M, 48 h; read-out: % Growth Inhibition (GI %)
Experimental: as §1

OVCAR-8 = experiment: NCI one-dose SRB growth assay; assay type: cell-based; details: Homo sapiens; OVCAR-8 (Ovarian Cancer), 10^-5 M, 48 h; read-out: % Growth Inhibition (GI %)
Experimental: as §1

786-0 = experiment: NCI one-dose SRB growth assay; assay type: cell-based; details: Homo sapiens; 786-0 (Renal Cancer), 10^-5 M, 48 h; read-out: % Growth Inhibition (GI %)
Experimental: as §1

NCI-H322M = experiment: NCI one-dose SRB growth assay; assay type: cell-based; details: Homo sapiens; NCI-H322M (Non-Small Cell Lung Cancer), 10^-5 M, 48 h; read-out: % Growth Inhibition (GI %)
Experimental: as §1

MDA-MB-231/ATCC = experiment: NCI one-dose SRB growth assay; assay type: cell-based; details: Homo sapiens; MDA-MB- 231/ATCC (Breast Cancer), 10^-5 M, 48 h; read-out: % Growth Inhibition (GI %)
Experimental: as §1

SK-OV-3 = experiment: NCI one-dose SRB growth assay; assay type: cell-based; details: Homo sapiens; SK-OV-3 (Ovarian Cancer), 10^-5 M, 48 h; read-out: % Growth Inhibition (GI %)
Experimental: as §1

SN12C = experiment: NCI one-dose SRB growth assay; assay type: cell-based; details: Homo sapiens; SN12C (Renal Cancer), 10^-5 M, 48 h; read-out: % Growth Inhibition (GI %)
Experimental: as §1

SF-268 = experiment: NCI one-dose SRB growth assay; assay type: cell-based; details: Homo sapiens; SF-268 (CNS Cancer), 10^-5 M, 48 h; read-out: % Growth Inhibition (GI %)
Experimental: as §1

COLO 205 = experiment: NCI one-dose SRB growth assay; assay type: cell-based; details: Homo sapiens; COLO 205 (Colon Cancer), 10^-5 M, 48 h; read-out: % Growth Inhibition (GI %)
Experimental: as §1

NCI/ADR-RES = experiment: NCI one-dose SRB growth assay; assay type: cell-based; details: Homo sapiens; NCI/ADR-RES (Ovarian Cancer), 10^-5 M, 48 h; read-out: % Growth Inhibition (GI %)
Experimental: as §1

ACHN = experiment: NCI one-dose SRB growth assay; assay type: cell-based; details: Homo sapiens; ACHN (Renal Cancer), 10^-5 M, 48 h; read-out: % Growth Inhibition (GI %)
Experimental: as §1

T-47D = experiment: NCI one-dose SRB growth assay; assay type: cell-based; details: Homo sapiens, T47D; T-47D (Breast Cancer), 10^-5 M, 48 h; read-out: % Growth Inhibition (GI %)
Experimental: as §1

BT-549 = experiment: NCI one-dose SRB growth assay; assay type: cell-based; details: Homo sapiens; BT-549 (Breast Cancer), 10^-5 M, 48 h; read-out: % Growth Inhibition (GI %)
Experimental: as §1

SNB-75 = experiment: NCI one-dose SRB growth assay; assay type: cell-based; details: Homo sapiens; SNB-75 (CNS Cancer), 10^-5 M, 48 h; read-out: % Growth Inhibition (GI %)
Experimental: as §1

renal cancer = experiment: NCI five-dose SRB assay, subpanel average; details: 48 h; for GI50 / CC50: Homo sapiens; for GI50: read-out: GI50 (median growth inhibitory); for CC50: read-out: LC50 (median lethal); for TGI (total growth inhibitory): average over renal cancer subpanel, five concentrations
colon cancer = experiment: NCI five-dose SRB assay, subpanel average; details: 48 h; for GI50 / CC50: Homo sapiens; for GI50: read-out: GI50 (median growth inhibitory); for CC50: read-out: LC50 (median lethal); for TGI (total growth inhibitory): average over colon cancer subpanel, five concentrations
[1] = test system: 60 human tumor cell line panel; experiment: NCI 60 cell line one-dose SRB primary anticancer assay; assay type: cell-based; details: 60 cell lines assay in one dose, 10µM (title; head prints 10.0 mM), 48 h; for inhibition at 10 µM: Homo sapiens, read-out: MGI % (Mean growth inhibition percentage)
Experimental: as §1

ovarian cancer = experiment: NCI five-dose SRB assay, subpanel average; details: 48 h; for GI50 / CC50: Homo sapiens; for GI50: read-out: GI50 (median growth inhibitory); for CC50: read-out: LC50 (median lethal); for TGI (total growth inhibitory): average over ovarian cancer subpanel, five concentrations
HOP-62 = experiment: NCI one-dose SRB growth assay; assay type: cell-based; details: Homo sapiens; HOP-62 (Non-Small Cell Lung Cancer), 10^-5 M, 48 h; read-out: % Growth Inhibition (GI %)
Experimental: as §1

CCn1cc(C(=O)O)c(=O)c2cc(F)c(N3CCN(S(=O)(=O)c4ccc(Cl)cc4)CC3)cc21 [Compound 1a]
inhibition at 10 µM (K-562): 78.6%
inhibition at 10 µM (NCI-H522): 91.6%
inhibition at 10 µM (M14): 81.1%
inhibition at 10 µM (SF-539): 78.3%
inhibition at 10 µM (A498): > 100%
inhibition at 10 µM (MCF7): 85.7%
inhibition at 10 µM (OVCAR-4): 62.3%
inhibition at 10 µM (CAKI-1): 56.4%
inhibition at 10 µM (OVCAR-8): 87.4%
inhibition at 10 µM (786-0): 76.3%
inhibition at 10 µM (NCI-H322M): 54.1%
inhibition at 10 µM (MDA-MB-231/ATCC): 58.9%
inhibition at 10 µM (SK-OV-3): 59.2%
inhibition at 10 µM (SN12C): 88.4%
inhibition at 10 µM (SF-268): 77.3%
inhibition at 10 µM (COLO 205): 87.9%
inhibition at 10 µM (NCI/ADR-RES): 31.3%
inhibition at 10 µM (ACHN): 71.3%
inhibition at 10 µM (T-47D): 58.9%
inhibition at 10 µM (BT-549): 87.4%
inhibition at 10 µM (SNB-75): 58.2%
GI50 (renal cancer): 2.93 µM
CC50 (renal cancer): > 100 µM
TGI (total growth inhibitory) (renal cancer): 54.00 µM
GI50 (colon cancer): 3.38 µM
CC50 (colon cancer): 95.2 µM
TGI (total growth inhibitory) (colon cancer): 73.15 µM
PCE (Positive cytotoxic effect: ratio between number of cell lines with percentage growth inhibition from 10 to >100 and total number of cell lines) [1]: 56/56
RGI % (Range of growth inhibition percentage) [1]: >100.0 to 31.3%
inhibition at 10 µM [1]: 75.6%
GI50 (ovarian cancer): 3.16 µM
CC50 (ovarian cancer): > 100 µM
TGI (total growth inhibitory) (ovarian cancer): 54.29 µM

CCn1cc(C(=O)O)c(=O)c2cc(F)c(N3CCN(S(=O)(=O)c4c(C)cc(C)cc4C)CC3)cc21 [Compound 6a]
inhibition at 10 µM (K-562): 20.1%
inhibition at 10 µM (NCI-H522): 13.5%
inhibition at 10 µM (M14): 24.4%
inhibition at 10 µM (SF-539): 20.1%
inhibition at 10 µM (A498): 21.1%
inhibition at 10 µM (MCF7): < 10%
inhibition at 10 µM (OVCAR-4): < 10%
inhibition at 10 µM (CAKI-1): 10.7%
inhibition at 10 µM (OVCAR-8): 18.5%
inhibition at 10 µM (786-0): < 10%
inhibition at 10 µM (NCI-H322M): 16.5%
inhibition at 10 µM (MDA-MB-231/ATCC): 16.3%
inhibition at 10 µM (SK-OV-3): < 10%
inhibition at 10 µM (SN12C): 11.5%
inhibition at 10 µM (HOP-62): 28.5%
inhibition at 10 µM (SF-268): 16.3%
inhibition at 10 µM (COLO 205): < 10%
inhibition at 10 µM (NCI/ADR-RES): 15.2%
inhibition at 10 µM (ACHN): 24.2%
inhibition at 10 µM (T-47D): 25.9%
inhibition at 10 µM (BT-549): 26.3%
inhibition at 10 µM (SNB-75): 29.2%
PCE (Positive cytotoxic effect: ratio between number of cell lines with percentage growth inhibition from 10 to >100 and total number of cell lines) [1]: 46/58
RGI % (Range of growth inhibition percentage) [1]: 66.90 to 10.12%
inhibition at 10 µM [1]: 18.3%

O=c1[nH]cc(F)c(=O)[nH]1 [Compound 5-FU, 5-fluorouracil, reference compound]
inhibition at 10 µM (K-562): 42.3%
inhibition at 10 µM (NCI-H522): 58%
inhibition at 10 µM (SF-539): > 100%
inhibition at 10 µM (A498): > 100%
inhibition at 10 µM (MCF7): 11.5%
inhibition at 10 µM (OVCAR-4): 59.4%
inhibition at 10 µM (CAKI-1): 39.4%
inhibition at 10 µM (786-0): 48.7%
inhibition at 10 µM (NCI-H322M): 59.5%
inhibition at 10 µM (MDA-MB-231/ATCC): 78.1%
inhibition at 10 µM (SK-OV-3): 77.5%
inhibition at 10 µM (SN12C): 54%
inhibition at 10 µM (HOP-62): 47.8%
inhibition at 10 µM (SF-268): 59%
inhibition at 10 µM (COLO 205): 40.2%
inhibition at 10 µM (NCI/ADR-RES): 47.6%
inhibition at 10 µM (ACHN): 39.3%
inhibition at 10 µM (T-47D): 56.7%
inhibition at 10 µM (BT-549): 37.8%
inhibition at 10 µM (SNB-75): 65.9%
GI50 (renal cancer): 45.6 µM
CC50 (renal cancer): > 100 µM
TGI (total growth inhibitory) (renal cancer): c (Compounds showed values > 100µM)
GI50 (colon cancer): 8.4 µM
CC50 (colon cancer): > 100 µM
TGI (total growth inhibitory) (colon cancer): c (Compounds showed values > 100µM)
GI50 (ovarian cancer): 61.4 µM
CC50 (ovarian cancer): > 100 µM
TGI (total growth inhibitory) (ovarian cancer): c (Compounds showed values > 100µM)
